Data taken from paper PMC3160329, “Functional Dissection of the Proton Pumping Modules of Mitochondrial Complex I” (PLoS Biology, 2011).

Molecular target: T1, subcomplex nb8mΔ (Yarrowia lipolytica, UniProt Q9B6E8+Q9UUT7+Q9UUU1+Q9UUU2)
T1 construct: gene nucm; complex I subcomplex lacking 14 subunits of the PD module (incl. ND4, ND5, NB8M); about 680 kDa; C-terminal His tag on NUGM; purified, asolectin proteoliposomes; with NADH-ubiquinone oxidoreductase 75 kDa subunit; NADH-ubiquinone oxidoreductase 30 kDa subunit; NADH-ubiquinone oxidoreductase 24 kDa subunit; NADH-ubiquinone oxidoreductase 23 kDa subunit; NADH-ubiquinone oxidoreductase chain 2; NADH-ubiquinone oxidoreductase chain 3; NADH-ubiquinone oxidoreductase chain 6; NADH-ubiquinone oxidoreductase chain 4L
Experiment: NADH:DBQ oxidoreductase activity, NADH oxidation
Assay type: biochemical
Conditions: 100 µM DBQ, 100 µM NADH, pH 7.2, 30 °C, proteoliposomes

| Compound | NADH:DBQ oxidoreductase activity, NADH oxidation (electron acceptor) | NADH:DBQ oxidoreductase activity, NADH oxidation (electron donor) |
| --- | --- | --- |
| CCCCCCCCCCC1=C(C)C(=O)C(OC)=C(OC)C1=O [DBQ, decylubiquinone] | addition of NADH and the ubiquinone analogue DBQ to subcomplex nb8mΔ proteoliposomes | – |
| NC(=O)C1=CN([C@@H]2O[C@H](COP(=O)(O)OP(=O)(O)OC[C@H]3O[C@@H](n4cnc5c(N)ncnc54)[C@H](O)[C@@H]3O)[C@@H](O)[C@H]2O)C=CC1 [NADH] | – | addition of NADH and the ubiquinone analogue DBQ to subcomplex nb8mΔ proteoliposomes |
